The values below come from patent US5424326A, “Phenyl-1,2,5-oxadiazolecarboxamide-2-oxides, their preparation and their use” (Cassella Aktiengesellschaft, priority 1992, dated 1995).

The first assay relates to pulmonary artery of the guinea-pig. The assay can be described thus: relaxation of potassium-depolarised pulmonary artery strips of the guinea-pig (CaCl2-induced contraction). The settings on record: 40 mmol/l potassium, 0.5 mmol/l CaCl2; cumulative addition; average value of 4 to 6 vessel strips; read-out: IC50 (concentration which inhibits the contraction by 50%). On the procedure: In this method, spiral strips of the pulmonary artery of the guinea-pig are depolarised with 40 mmol/l of potassium after equiliberation in calcium-free Tyrode solution. An addition of 0.5 mmol/l of CaCl2 then induces a contraction.
The relaxing action of the test substance is determined by cumulative addition in 1/2 log 10 graded concentrations.
Take “N-(3-Diethylaminopropyl)-3-phenyl-1,2,5-oxadiazole-4-carboxamide-2-oxide [Compound 6a]”: the IC50 came out at 400 nM.

Take “N-Methyl-3-(3,4-dimethoxyphenyl)-1,2,5-oxadiazole-4-carboxamide-2-oxide [Compound 4a]”: the IC50 worked out at 5000 nM.

As for “N-Butyl-3-phenyl-1,2,5-oxadiazole-4-carboxamide-2-oxide [Compound 5a]”, the IC50 amounted to 700 nM.

The assay is the same for the next values; noted with them: Cavia porcellus; 40 mmol/l potassium, 0.5 mmol/l CaCl2; cumulative addition; average value of 4 to 6 vessel strips; read-out: IC50 (concentration which inhibits the contraction by 50%).
Turning to `O=[N+]([O-])OC1COC2C(O)COC12` (stereo not shown) [Isosorbide-5-mononitrate, reference compound], the IC50 was over 100000 nM.

In the case of `CNC(=O)c1c(-c2ccccc2)no[n+]1[O-]` [Compound 1a, N-Methyl-4-phenyl-1,2,5-oxadiazole-3-carboxamide-2-oxide], the IC50 amounted to 1000 nM.

For the compound `O=C(NCc1ccncc1)c1no[n+]([O-])c1-c1ccccc1` [Compound 14b], the IC50 was found to be 1000 nM.

For the compound `O=C(NCc1cccnc1)c1no[n+]([O-])c1-c1ccccc1` [Compound 7b], the IC50 came out at 2000 nM.

Consider `CCOC(=O)[N-]c1cn(N2CCOCC2)n[o+]1` [Molsidomine, reference compound], for which the IC50 came out at 300000 nM.

`O=C(NCc1ccncc1)c1c(-c2ccccc2)no[n+]1[O-]` [Compound 14a]: the IC50 turned out to be 500 nM.

On to `NC(=O)CNC(=O)c1c(-c2ccccc2)no[n+]1[O-]` [Compound 10a], for which the IC50 is 1000 nM.

`COc1ccc(-c2no[n+]([O-])c2C(=O)NCCN(C(C)C)C(C)C)cc1OC` [Compound 13a]: the IC50 was determined as 300 nM.

For the compound `CC(C)N(CCNC(=O)c1no[n+]([O-])c1-c1ccccc1)C(C)C` [Compound 12b], the IC50 is 2000 nM.

In the case of `O=C(NCc1cccnc1)c1c(-c2ccccc2)no[n+]1[O-]` [Compound 7a], the IC50 turned out to be 300 nM.
